Data from patent US20080206311A1, “Sucrase Activity Inhibitor, Glucoamylase Activity Inhibitor and Food and Feed Containing the Same” (MITSUI SUGAR CO., LTD., priority 2005, published 2008).

What was measured:
[1] = biological target: T1, lactase (Rattus norvegicus, UniProt Q02401); assay: Lactase activity inhibition with rat small-intestinal enzyme liquid, substrate lactose; format: biochemical; details: 5% lactose + 5% test sample
T1 construct: tissue Sigma Corporation; host or cells: rat small intestine (acetone powder), buffer extract, unpurified
T1 sequence (Q02401 868-1928): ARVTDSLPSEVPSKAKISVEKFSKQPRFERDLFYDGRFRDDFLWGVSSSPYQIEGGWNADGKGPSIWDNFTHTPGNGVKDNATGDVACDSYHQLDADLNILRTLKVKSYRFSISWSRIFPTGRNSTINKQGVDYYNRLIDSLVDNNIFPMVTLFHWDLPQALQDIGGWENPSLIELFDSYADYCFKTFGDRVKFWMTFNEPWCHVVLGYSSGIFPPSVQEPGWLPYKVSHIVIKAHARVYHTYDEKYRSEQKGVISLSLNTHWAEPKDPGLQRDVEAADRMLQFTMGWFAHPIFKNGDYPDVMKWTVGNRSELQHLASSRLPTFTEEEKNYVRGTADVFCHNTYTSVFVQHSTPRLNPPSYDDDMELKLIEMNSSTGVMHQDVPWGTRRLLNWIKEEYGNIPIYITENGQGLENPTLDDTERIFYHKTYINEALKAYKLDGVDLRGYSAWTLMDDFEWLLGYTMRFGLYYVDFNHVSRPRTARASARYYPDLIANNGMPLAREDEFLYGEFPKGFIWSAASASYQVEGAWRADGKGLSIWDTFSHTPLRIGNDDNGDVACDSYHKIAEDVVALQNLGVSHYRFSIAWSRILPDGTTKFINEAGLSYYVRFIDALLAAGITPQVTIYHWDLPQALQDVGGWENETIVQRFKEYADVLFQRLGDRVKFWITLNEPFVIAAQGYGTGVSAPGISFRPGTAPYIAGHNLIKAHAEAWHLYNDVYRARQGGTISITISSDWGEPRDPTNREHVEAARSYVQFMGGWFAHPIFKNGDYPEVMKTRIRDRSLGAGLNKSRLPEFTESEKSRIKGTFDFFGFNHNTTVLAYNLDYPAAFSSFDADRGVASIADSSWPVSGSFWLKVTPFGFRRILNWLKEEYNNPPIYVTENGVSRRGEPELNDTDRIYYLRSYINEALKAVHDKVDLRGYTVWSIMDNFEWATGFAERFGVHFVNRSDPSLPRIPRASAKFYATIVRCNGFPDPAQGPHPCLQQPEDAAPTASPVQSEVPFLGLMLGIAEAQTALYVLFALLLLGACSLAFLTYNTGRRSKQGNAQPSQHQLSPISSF
Method: Two grams of rat small-intestinal acetone powder (ex Sigma Corporation) were dissolved in 20 ml of 0.1 M phosphate buffer (pH 6.8), left standing one day at 5° C., and subsequently subjected to centrifugal separation (8000 rpm×15 min.). The supernatant was filtered through a 0.8 μm membrane filter to obtain a small-intestinal enzyme liquid. This liquid contained a mixture of enzymes present in small intestine, such as sucrose, glucoamylase, maltase, and isomaltase.
Each 0.25 ml of the small-intestinal enzyme liquid was added to each 5 ml of Solutions 1 through 5 and placed in a water bath at 37° C. to allow them to react for 60 min. while shaken at 60 strokes/min. After the reaction, they were heated in a boiling water bath for 3 min. for inactivation of the enzymes.
The glucose concentration in each solution after the reaction was measured using the F-kit Glucose (ex Roche). A liberated glucose concentration (g/l) was calculated by subtracting the blank value (0.1 M phosphate buffer alone) and the concentration of glucose originally contained in the test sample from each glucose concentration measured.
Next, each of the liberated glucose concentration was input in the following equation to obtain decomposition inhibition ratio for maltase and sucrose. In the present tests, the substrates and the inhibitors were decomposed by enzymes present in the small-intestinal enzyme liquid. However, the enzymes decomposing the substrates are different from the enzymes decomposing the inhibitors. The decomposition inhibition ratio was determined as a measure for the inhibitory effect. When the inhibitor was added, the glucose concentration was lower than that seen when the substrate alone was reacted. A higher decomposition inhibition ratio means a stronger inhibitory effect.
Decomposition inhibition ratio,%={(A+B)−(AB)}+(A+B)×100 [Equation 1]
wherein (A+B) indicates a sum of a liberated glucose concentration in the control solution containing the test sample alone after the reaction (A) and a liberated glucose concentration in the control solution containing the substrate alone after the reaction (B); and (AB) indicates a liberated glucose concentration in the test solution containing the test sample (A) and the substrate (B), after the reaction.
The procedures in Example 1 were repeated with the exception that palatinit, palatinose or isomaltose was used as a test sample and lactose was used as a substrate. The test samples and the substrate were dissolved in 0.1 M phosphate buffer (pH 6.8) to attain the concentration shown in Table 5 to thereby prepare three test solutions. Besides, each of the test samples or the substrate was dissolved in 0.1 M phosphate buffer (pH 6.8) to attain the concentration shown in Table 5 to thereby prepare control solutions. Each 5 ml of the aforementioned test solutions and the control solutions was subjected to the enzymatic reaction according to the same procedures as in Example 1. The glucose concentration, the fructose concentration and the galactose concentration were measured. The galactose concentration was measured using F-kit Galactose (ex Roche). The liberated galactose concentration, g/l, was calculated by subtracting the blank value (0.1 M phosphate buffer alone) from the measured galactose concentration.

[2] = biological target: (Homo sapiens, UniProt P14410); details: 4.3-56 mM sucrose as substrate, 14 mM palatinose as inhibitor; cited from earlier work
[3] = test system: maltase; details: maltose as substrate; Non-Patent Publication 4; cited from earlier work

Chain of (Homo sapiens, UniProt P14410) (P14410 whole entry): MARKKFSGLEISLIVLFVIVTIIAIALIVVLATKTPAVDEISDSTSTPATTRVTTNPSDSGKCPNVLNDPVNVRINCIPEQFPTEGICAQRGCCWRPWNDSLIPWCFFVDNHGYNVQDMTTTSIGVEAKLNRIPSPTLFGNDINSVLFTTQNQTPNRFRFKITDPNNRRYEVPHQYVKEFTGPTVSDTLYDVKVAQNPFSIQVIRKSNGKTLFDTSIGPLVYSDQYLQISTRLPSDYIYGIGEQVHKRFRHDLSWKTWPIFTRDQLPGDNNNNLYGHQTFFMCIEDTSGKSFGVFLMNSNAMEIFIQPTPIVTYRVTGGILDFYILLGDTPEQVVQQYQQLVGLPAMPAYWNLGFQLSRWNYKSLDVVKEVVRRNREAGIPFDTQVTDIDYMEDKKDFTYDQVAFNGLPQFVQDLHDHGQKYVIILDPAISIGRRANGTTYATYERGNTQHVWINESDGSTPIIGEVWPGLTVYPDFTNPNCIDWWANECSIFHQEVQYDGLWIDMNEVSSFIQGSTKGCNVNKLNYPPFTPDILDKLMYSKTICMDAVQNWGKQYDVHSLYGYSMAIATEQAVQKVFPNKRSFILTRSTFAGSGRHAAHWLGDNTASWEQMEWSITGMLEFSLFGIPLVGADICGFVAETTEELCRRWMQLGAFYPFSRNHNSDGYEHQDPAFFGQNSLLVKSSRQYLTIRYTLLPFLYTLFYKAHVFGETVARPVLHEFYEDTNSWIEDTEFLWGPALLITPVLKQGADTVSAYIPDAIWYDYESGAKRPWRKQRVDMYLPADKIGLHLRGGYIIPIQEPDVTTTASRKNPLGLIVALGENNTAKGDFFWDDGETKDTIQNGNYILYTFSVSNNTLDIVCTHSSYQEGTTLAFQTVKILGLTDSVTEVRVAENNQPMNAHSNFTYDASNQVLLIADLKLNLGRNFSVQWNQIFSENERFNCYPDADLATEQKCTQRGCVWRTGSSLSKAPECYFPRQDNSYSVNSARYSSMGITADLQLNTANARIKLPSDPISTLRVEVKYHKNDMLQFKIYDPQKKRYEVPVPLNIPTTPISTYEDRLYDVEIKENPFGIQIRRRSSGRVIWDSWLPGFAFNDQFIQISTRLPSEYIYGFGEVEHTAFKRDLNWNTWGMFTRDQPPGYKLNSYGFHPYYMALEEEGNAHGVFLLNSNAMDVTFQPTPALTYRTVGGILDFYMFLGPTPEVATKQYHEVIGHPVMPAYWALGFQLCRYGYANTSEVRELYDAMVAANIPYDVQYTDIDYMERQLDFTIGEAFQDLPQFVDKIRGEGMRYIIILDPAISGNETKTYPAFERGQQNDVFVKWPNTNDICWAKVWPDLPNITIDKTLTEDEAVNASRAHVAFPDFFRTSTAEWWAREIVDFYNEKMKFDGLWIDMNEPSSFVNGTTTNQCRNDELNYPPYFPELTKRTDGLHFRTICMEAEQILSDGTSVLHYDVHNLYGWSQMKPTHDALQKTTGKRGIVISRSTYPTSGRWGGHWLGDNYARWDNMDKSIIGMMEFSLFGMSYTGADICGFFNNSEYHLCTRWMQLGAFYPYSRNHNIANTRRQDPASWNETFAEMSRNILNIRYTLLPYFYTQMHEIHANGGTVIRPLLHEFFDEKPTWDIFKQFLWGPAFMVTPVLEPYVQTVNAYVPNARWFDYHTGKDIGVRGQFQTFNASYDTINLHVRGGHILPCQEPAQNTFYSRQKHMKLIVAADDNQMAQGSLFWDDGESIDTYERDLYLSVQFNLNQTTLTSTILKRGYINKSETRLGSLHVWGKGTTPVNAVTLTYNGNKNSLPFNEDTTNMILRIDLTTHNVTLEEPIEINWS

OC[C@H]1O[C@H](OC[C@H]2OC(O)(CO)[C@@H](O)[C@@H]2O)[C@H](O)[C@@H](O)[C@@H]1O (stereo partly shown) [palatinose, isomaltulose]
Decomposition inhibition ratio, %, against lactase [1]: 3% | Lactase activity inhibitory effect (in words) [1]: no lactose inhibitory effect was appreciable | Liberated fructose concentration [1]: 0.23 g/L | Liberated galactose concentration [1]: 0.12 g/L | Liberated glucose concentration [1]: 0.33 g/L | Inhibitory effect on the sucrase activity (reported) [2]: no inhibitory effect | Maltase activity inhibitory effect (reported) [3]: have a maltase activity inhibitory effect
